Data from patent US20230038623A1, “NOVEL SKIN CARE COMPOSITION” (BEIERSDORF AG, priority 2019, published 2023).

Key:
[1] = system: C. acnes strain C3; assay: Evaluation of the minimum inhibitory concentration (MIC) of cosmetic excipients; type: cell-based, Cutibacterium acnes; conditions: MIC (% w/vol) at which compound starts interfering with growth, anaerobic, 3 days, 37° C., scored by turbidity
Protocol: (§1) In microbiology, the MIC is the lowest concentration of a chemical which prevents visible growth of bacterium. The resulted MIC value depends both on the microorganism and the test compound. The MIC is determined by preparing concentrations series of the test compound in vitro, incubating the solutions with the separate batches of cultured bacteria, and measuring the results using agar dilution or broth microdilution. For the experiments with C. acnes strains C3 and K8, media comprising yeast extract soy peptone and dextrose were used. The MIC is determined by turbidity.
(§2) A total of 125 cosmetic excipients were tested for their compatibility with C. acnes strains C3 and K8. Hydrophilic compounds were tested in a 96-well plate liquid broth format, poorly soluble compounds were pre-dissolved in DMSO before dilution in liquid broth and hydrophobic or solid compounds were tested in an agar well diffusion test assay. The different dilutions of the test excipients in media were prepared in Falcon tubes and then distributed in a deep well plate using a multistepper. Each well received 1.2 ml and was subsequently inoculated with 120 μl of C. acnes bacteria suspension (strain C3 and K8). From the deep well plate 200 μl were transferred in each well of a clear 96 well replicate plate. The leftover was discarded. The plates were then incubated anaerobically for 3 days at 37° C. Following incubation, the test plates were visually examined and wells were scored for growth or complete growth inhibition to define the minimum inhibitory concentration.
(§3) These excipients are listed in the below table with their compatibility values for C. acnes strains C3 and K8. The compatibility values represent the MIC value of the listed ingredients with the tested C. acnes strains. At this concentration [% w/vol] the tested compound starts interfering with the growth of the tested strains. The compounds can be used in formulations at concentrations below this concentration.

[2] = system: C. acnes strain K8; assay: as above; type: cell-based, Cutibacterium acnes; conditions: MIC (% w/vol) at which compound starts interfering with growth, anaerobic, 3 days, 37° C., scored by turbidity
Protocol: as §1, §2, §3

Molecule | COMPATABILITY VALUE C3 [%] [1] | COMPATABILITY VALUE K8 [%] [2]
CCCCCCC(O)CO (centres unmarked) [caprylyl glycol] | 0.18% | 0.18%
CC(CO)CO [methylpropanediol] | 4.00% | 4.00%
ethylhexyl cocoate | 10.00% | 10.00%
tocopherol | 1.50% | 1.50%
